# Data published in US20240199648A1, “MAP4K1 INHIBITORS” (Blueprint Medicines Corporation, priority 2021, published 2024).
# Assays:
# [1] = test system: Primary T Cell; experiment: T cell enhancement of cytokines: IL2 measurement (HTRF) in expanded CD3+ T cells stimulated with anti-CD3/anti-CD28; format: cell-based, human; settings: Homo sapiens, T-cell, 24 h, plate-bound anti-CD3 and soluble anti-CD28, 24 h, read-out: IL-2 Primary T Cell EC50
# Experimental: T cells are isolated from whole blood of healthy donors by immunomagnetic negative selection following manufacture's protocol (StemCell Technologies, human T cell isolation kit). Purity of isolated cells is assessed by flow cytometry and yields 95-98% CD3^+ T cells. For expansion of T cells, 1×10^6 cells/well are plated in serum free cell expansion media (ThermoFisher) containing 30U of recombinant human IL2 (R&D) and stimulated with 25 ul of CD3/CD28 beads (Invitrogen) in 24 well plates for 3-4 days. T cells are then expanded in 175 cm flasks and maintained at a cell density of 1 to 2.5×10^6 cells/ml days by addition of ⅔ of fresh media every 2-3 days. After 10-14 days, cells are frozen in BamBanker freezing media (Thermo) and stored in liquid nitrogen.
# For IL2 measurement, expanded CD3+ T cells are dispensed at 100K cells/well (cultured in X-VIVO 10 Serum-free media) and are stimulated with plate-bound anti-CD3 and soluble anti-CD28 in the presence of vehicle or compound of the disclosure at various concentrations for 24 h. As outlined in the manufacturer's protocol (Cisbio), 16 μL of conditioned media is transferred to a white 384-well low volume plate. Following a 24 h incubation with the anti-IL2 antibodies, the homogenous time resolved fluorescence (HTRF) is measured.
# [2] = molecular target: T1, MAP4K1 (HPK1) (Homo sapiens, UniProt Q92918); experiment: Inhibition of MAP4K1 biochemical enzymatic activity (EZReader 2 electrophoretic mobility shift assay); settings: HPK1 (Invitrogen), S6K2tide 1.5 μM, 120 min; ATP 26 μM or 1000 μM (not stated which)
# T1 construct: purchased Invitrogen
# T1 sequence (Q92918 whole entry): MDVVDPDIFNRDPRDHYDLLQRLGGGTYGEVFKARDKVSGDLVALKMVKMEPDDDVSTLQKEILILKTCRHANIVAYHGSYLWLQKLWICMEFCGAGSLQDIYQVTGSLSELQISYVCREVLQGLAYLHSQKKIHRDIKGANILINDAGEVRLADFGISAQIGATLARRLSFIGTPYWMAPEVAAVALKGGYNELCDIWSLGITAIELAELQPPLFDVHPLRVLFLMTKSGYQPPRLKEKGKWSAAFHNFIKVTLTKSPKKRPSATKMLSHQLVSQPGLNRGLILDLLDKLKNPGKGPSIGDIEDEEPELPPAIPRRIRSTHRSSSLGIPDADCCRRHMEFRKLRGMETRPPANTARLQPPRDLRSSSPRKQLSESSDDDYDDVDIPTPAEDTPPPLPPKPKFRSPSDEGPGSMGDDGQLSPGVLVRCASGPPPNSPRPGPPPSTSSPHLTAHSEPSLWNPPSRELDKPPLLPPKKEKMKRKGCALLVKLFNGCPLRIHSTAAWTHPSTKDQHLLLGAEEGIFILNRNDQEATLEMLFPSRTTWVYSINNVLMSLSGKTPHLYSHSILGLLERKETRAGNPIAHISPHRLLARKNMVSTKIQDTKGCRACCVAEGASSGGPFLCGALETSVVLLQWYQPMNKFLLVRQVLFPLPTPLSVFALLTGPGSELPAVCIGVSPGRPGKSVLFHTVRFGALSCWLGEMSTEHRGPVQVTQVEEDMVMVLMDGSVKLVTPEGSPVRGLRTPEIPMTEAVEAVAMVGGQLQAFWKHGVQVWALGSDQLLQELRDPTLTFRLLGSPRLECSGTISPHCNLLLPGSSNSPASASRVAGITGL
# Summary of the method: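 Mobility-shift assay: 0.1-15 nM enzyme, 1.5 μM fluorescent peptide, 20-1000 μM ATP (apparent Km or 1 mM) in HEPES pH 7.5, MgCl2, DTT, Brij 35; 60-180 min at 25° C, 1% DMSO. Ten-point 4-fold compound series in duplicate; EDTA-stopped, product/substrate peak ratio read.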
Structure (SMILES),EC50 [1] [nM],IC50 [2] [nM]
C[C@@H]1c2nc(Nc3cc4c(C(C)(C)N)cnc(OC5CN(C(=O)N6CC(F)C6)C5)c4cn3)ccc2C(=O)OC1(C)C [Compound 95],19.8,0.22
C[C@@H]1c2nc(Nc3cc4c(C(C)(C)N)cnc(O[C@H]5C[C@@H](C(=O)N6CC(F)(F)C6)C5)c4cn3)ccc2C(=O)OC1(C)C [Compound 100],22.1,0.11
C[C@@H]1c2nc(Nc3cc4c(C(C)(C)N)cnc(OC5CN(C(=O)N6CC(F)(F)C6)C5)c4cn3)ccc2C(=O)OC1(C)C [Compound 101],17.8,0.13
C[C@@H]1OC(=O)c2ccc(Nc3cc4c(C(C)(C)N)cnc(OC5CN(C(=O)C6(C(F)(F)F)CC6)C5)c4cn3)nc2[C@H]1C [Compound 102],24,0.12
CC[C@@](C)(N)c1cnc(OC2CN(C(C)=O)C2)c2cnc(Nc3ccc4c(n3)C(C)(C)COC4=O)cc12 [Compound 111],9.6,0.43
CCC(=O)N1C[C@@H](Oc2ncc(C(C)(C)N)c3cc(Nc4ccc5c(n4)[C@@H](C)C(C)(C)OC5=O)ncc23)[C@@H]1C [Compound 118],17.7,0.17
COC[C@@](C)(N)c1cnc(O[C@@H]2CN(C(C)=O)[C@H]2C)c2cnc(Nc3ccc4c(n3)[C@@H](C)[C@H](C)OC4=O)cc12 [Compound 119],90,0.2
CCC(=O)N1CC(Oc2ncc([C@](C)(N)COC)c3cc(Nc4ccc5c(n4)[C@@H](C)[C@H](C)OC5=O)ncc23)C1 [Compound 120],29.4,0.25
COC[C@@](C)(N)c1cnc(OC2CN(C(=O)OC)C2)c2cnc(Nc3ccc4c(n3)[C@@H](C)[C@H](C)OC4=O)cc12 [Compound 121],41.5,0.2
COC[C@@](C)(N)c1cnc(OC2CN(C(C)=O)[C@H]2C)c2cnc(Nc3ccc4c(n3)[C@@H](C)C(C)(C)OC4=O)cc12 (stereo partly drawn) [Compound 122],53.7,0.12
CCC(=O)N1CC(Oc2ncc([C@](C)(N)COC)c3cc(Nc4ccc5c(n4)[C@@H](C)C(C)(C)OC5=O)ncc23)C1 [Compound 123],60.8,0.1
COC[C@@](C)(N)c1cnc(OC2CN(C(=O)OC)C2)c2cnc(Nc3ccc4c(n3)[C@@H](C)C(C)(C)OC4=O)cc12 [Compound 125],130,0.17
